Bridge positions count the residues as written; N and C are the ends. Ends that are not written are not given here.
Tested on: IL-1β/IL-1R1 dependent signaling
Test: HEK-Blue IL-33/IL-1β reporter cells (SEAP) stimulated with IL-1β
Format: cell-based
Conditions: FIG. 15; for IL-1β/IL-1R1 dependent signaling (NF-κB and AP-1): HEK Blue reporter cells stimulated with IL-1
Excerpt: HEK-Blue™ IL-33/IL-1β cells were purchased from InvivoGen. These cells were transfected with a reporter gene, secreted embryonic alkaline phosphatase (SEAP), under the control of the IFN-β minimal promoter fused to five NF-κB and five AP-1 binding sites. In the presence of bioactive IL1β and/or IL33, HEK-Blue cells activate the NF-κB and AP-1 pathways triggering the production of SEAP. SEAP activity in cell supernatant is quantified using a colorimetric enzyme assay (QUANTI-Blue™, InvivoGen).
HEK Blue IL-33/IL-1β Reporter Cells. HEK-Blue™ IL-33/IL-1β Cells were purchased from InvivoGen. These cells were generated by transfection with a reporter gene, secreted embryonic alkaline phosphatase (SEAP), under the control of the IFN-β minimal promoter fused to five NF-κB and five AP-1 binding sites. In the presence of bioactive IL-1β and/or IL-33, HEK-Blue cells activated the NF-κB and AP-1 pathways triggering the production of SEAP. SEAP activity in cell supernatant was quantified using a colorimetric enzyme assay (QUANTI-Blue™, InvivoGen). HEK Blue cells were grown in DMEM, 4.5 g/l glucose, 2 mM L-Glutamine, 10% (v/v) heat-inactivated fetal bovine serum (30 min at 56° C.). After two passages, cells were exposed to selective medium (DMEM, 4.5 g/l glucose, 2 mM L-Glutamine, 10% heat-inactivated FBS (v/v) with of blasticidin (30 μg/ml), hygromycin B ([…]), and Zeocin™ ([…])). Cells were then plate in 96 well plates (10,000 cell per well) and stimulated with IL-1β (1 ng) and IL-33 (5 ng) in presence or absence of inhibitors.

Row | Substance | IL-1β/IL-1R1 dependent signaling (NF-κB and AP-1) | signaling activity of cytokine specificity controls (cytokine used instead of IL-1 as stimulus)
1 | TINQSISHSRTQNQTRTQILS (Synthetic construct RedAgg) [Arg286 peptide with glutamic acid replaced by glutamine to reduce aggregation] | inhibit IL-1β/IL-1R1 dependent signaling | 
2 | TINESISHSRTEDETRTQILS (Synthetic construct Arg286) | inhibit IL-1β/IL-1R1 dependent signaling | 
3 | TINESCSHSRTEDETRTQCLS [Cycl] | inhibit IL-1β/IL-1R1 dependent signaling | 
4 | TNFα [reference compound] |  | no significant signaling activity
5 | TINQSCSHSRTQNQTRTQCLS (disulfide 6-19 (inferred)) [RedAgg_Cycl, Arg286 peptide with glutamine replacements and two cysteines forming a disulfide bridge] | inhibit IL-1β/IL-1R1 dependent signaling | 

— patent US10927155B2, “Dual inhibitory action peptidomimetic inhibitor for IL-33 and IL-1beta” (GEORGE MASON UNIVERSITY, priority 2015, dated 2021)
